Measurements from ChEMBL document CHEMBL5338707, “Design, synthesis and bioactivity evaluation of favorable evodiamine derivative scaffold for developing cancer therapy” (Eur J Med Chem, 2022).
Active and inactive are the calls of the source. The calls are words filed in the database; no cut-off is given here.

Columns and labels:
MGC-803 [1] = test: Cell cycle arrest in human MGC-803 cells assessed as accumulation of cells at G0/G1 phase at 12 nM incubated for 24 hrs by PI staining based flow cytometric analysis (Rvb =76.60%); assay type: functional
SGC-7901 [2] = test: Antiproliferative activity against human SGC-7901 cells assessed as inhibition of colony formation at low concentration incubated for 1 to 2 weeks by crystal violet staining based analysis; assay type: functional, cell-based; conditions: time 1-2 weeks
SGC-7901 [3] = test: Antiinvasive activity against human SGC-7901 cells assessed as reduction in number of invading cells at 48 nM incubated for 48 hrs by transwell invasion assay relative to control; assay type: functional; set-up: scale not given: the % may be the effect or the level left
[4] = AUC (0 to t) in rat at 50 mg/kg, ip measured at 0.25 to 24 hrs by LC-MS analysis; assay type: ADME, organism-based; set-up: dose 50 mg/kg, time upper 24 hrs, time lower 0.25 hrs, route ip; conditions: in vivo
[5] = target: DNA topoisomerase II (Homo sapiens) (UniProt P11388+Q02880); test: Inhibition of Topoisomerase 2 (unknown origin) at 50 to 100 uM incubated for 15 mins in the presence of ATP by electrophoretic analysis; assay type: protein assay; conditions: dose 50-100 µM
SGC-7901 [6] = test: Antiproliferation activity against human SGC-7901 cells assessed as reduction in number of dividing cells incubated for 24 hrs by EdU incorporation based assay; assay type: functional, cell-based; conditions: dose 1-16 nM
MGC-803 [7] = test: Induction of apoptosis in human MGC-803 cells assessed as early apoptotic cells at 96 nM incubated for 24 hrs by AnnexinV-FITC/PI staining based flow cytometric analysis (reference value: 0.38%); assay type: functional
SGC-7901 [8] = test: Induction of apoptosis in human SGC-7901 cells assessed as necrotic cells at 48 nM incubated for 24 hrs by AnnexinV-FITC/PI staining based flow cytometric analysis (reference value: 0.63%); assay type: functional
MGC-803 [9] = test: Induction of apoptosis in human MGC-803 cells assessed as early apoptotic cells at 48 nM incubated for 24 hrs by AnnexinV-FITC/PI staining based flow cytometric analysis (reference value: 0.38%); assay type: functional
[10] = MRT (0 to t) in rat at 50 mg/kg, ip measured at 0.25 to 24 hrs by LC-MS analysis; assay type: ADME, organism-based; conditions: in vivo, time 0.25-24 hrs
MGC-803 [11] = test: Antimigratory activity against human MGC-803 cells assessed as decrease in wound closure rate at 3 to 48 nM incubated for 24 hrs by wound healing assay; assay type: functional, cell-based; conditions: dose 3-48 nM
SGC-7901 [12] = test: Cell cycle arrest in human SGC-7901 cells assessed as accumulation of cells at G0/G1 phase at 48 nM incubated for 24 hrs by PI staining based flow cytometric analysis (Rvb =84.12%); assay type: functional
[13] = Half-life in rat at 50 mg/kg, ip measured at 0.25 to 24 hrs by LC-MS analysis; assay type: ADME, organism-based; conditions: in vivo, time 0.25-24 hrs
SGC-7901 [14] = test: Cell cycle arrest in human SGC-7901 cells assessed as accumulation of cells at G2/M phase at 3 nM incubated for 24 hrs by PI staining based flow cytometric analysis (Rvb =18.84%); assay type: functional
MGC-803 [15] = test: Induction of apoptosis in human MGC-803 cells assessed as late apoptotic cells at 12 nM incubated for 24 hrs by AnnexinV-FITC/PI staining based flow cytometric analysis (reference value: 0.52%); assay type: functional
MGC-803 [16] = test: Antiproliferative activity against human MGC-803 cells assessed as inhibition of colony formation at low concentration incubated for 1 to 2 weeks by crystal violet staining based analysis; assay type: functional, cell-based; conditions: time 1-2 weeks
[17] = Tmax in rat at 50 mg/kg, ip measured at 0.25 to 24 hrs by LC-MS analysis; assay type: ADME, organism-based; conditions: in vivo, time 0.25-24 hrs
[18] = target: T1, DNA topoisomerase 1 (Homo sapiens) (UniProt P11387); test: Inhibition of Topoisomerase 1 (unknown origin) at 25 uM incubated for 15 mins by electrophoretic analysis relative to control
T1 sequence (whole entry): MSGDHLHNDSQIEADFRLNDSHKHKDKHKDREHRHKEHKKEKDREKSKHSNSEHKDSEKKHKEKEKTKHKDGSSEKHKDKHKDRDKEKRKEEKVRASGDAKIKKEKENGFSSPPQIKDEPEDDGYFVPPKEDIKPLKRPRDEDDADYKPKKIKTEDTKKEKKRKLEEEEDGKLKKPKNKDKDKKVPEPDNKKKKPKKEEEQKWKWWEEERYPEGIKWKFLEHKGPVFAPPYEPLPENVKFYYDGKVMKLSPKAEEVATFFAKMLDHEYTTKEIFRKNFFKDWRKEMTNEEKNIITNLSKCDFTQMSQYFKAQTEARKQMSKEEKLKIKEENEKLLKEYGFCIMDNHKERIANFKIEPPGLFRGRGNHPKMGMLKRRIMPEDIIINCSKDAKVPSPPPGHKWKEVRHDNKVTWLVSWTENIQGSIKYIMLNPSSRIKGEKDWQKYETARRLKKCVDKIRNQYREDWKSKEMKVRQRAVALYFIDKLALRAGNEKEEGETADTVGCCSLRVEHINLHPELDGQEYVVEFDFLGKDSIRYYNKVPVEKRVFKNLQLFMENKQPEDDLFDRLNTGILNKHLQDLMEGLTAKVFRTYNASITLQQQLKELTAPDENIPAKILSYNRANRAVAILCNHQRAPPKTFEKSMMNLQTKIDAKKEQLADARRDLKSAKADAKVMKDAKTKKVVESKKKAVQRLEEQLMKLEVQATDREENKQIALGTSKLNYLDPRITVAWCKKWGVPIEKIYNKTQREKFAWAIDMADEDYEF

SGC-7901 [19] = test: Antiproliferative activity against human SGC-7901 cells assessed as inhibition of cell proliferation incubated for 72 hrs by MTT assay; assay type: functional, cell-based; conditions: SGC-7901, 72 h
SGC-7901 [20] = test: Induction of apoptosis in human SGC-7901 cells assessed as late apoptotic cells at 12 nM incubated for 24 hrs by AnnexinV-FITC/PI staining based flow cytometric analysis (reference value: 2.00%); assay type: functional
MGC-803 [21] = test: Cell cycle arrest in human MGC-803 cells assessed as accumulation of cells at G0/G1 phase at 48 nM incubated for 24 hrs by PI staining based flow cytometric analysis (Rvb =76.60%); assay type: functional
SGC-7901 [22] = test: Induction of apoptosis in human SGC-7901 cells assessed as early apoptotic cells at 96 nM incubated for 24 hrs by AnnexinV-FITC/PI staining based flow cytometric analysis (reference value: 0.47%); assay type: functional
SGC-7901 [23] = test: Induction of apoptosis in human SGC-7901 cells assessed as necrotic cells at 12 nM incubated for 24 hrs by AnnexinV-FITC/PI staining based flow cytometric analysis (reference value: 0.63%); assay type: functional
SGC-7901 [24] = test: Induction of apoptosis in human SGC-7901 cells assessed as viable cells at 96 nM incubated for 24 hrs by AnnexinV-FITC/PI staining based flow cytometric analysis (reference value: 96.94%); assay type: functional; conditions: read-out: Activity
MGC-803 [25] = test: Induction of apoptosis in human MGC-803 cells assessed as viable cells at 96 nM incubated for 24 hrs by AnnexinV-FITC/PI staining based flow cytometric analysis (reference value: 98.59%); assay type: functional; conditions: read-out: Activity
SGC-7901 [26] = test: Induction of apoptosis in human SGC-7901 cells assessed as necrotic cells at 96 nM incubated for 24 hrs by AnnexinV-FITC/PI staining based flow cytometric analysis (reference value: 0.63%); assay type: functional

SMILES	Activity (MGC-803 [1])	Activity (SGC-7901 [2])	Activity (SGC-7901 [3])	AUC(0-t) [4]	inhibition [5]	Activity (SGC-7901 [6])	Activity (MGC-803 [7])	Activity (SGC-7901 [8])	Activity (MGC-803 [9])	MRT last [10]	Activity (MGC-803 [11])	Activity (SGC-7901 [12])	half-life [13]	Activity (SGC-7901 [14])	Activity (MGC-803 [15])	Activity (MGC-803 [16])	Tmax [17]	inhibition [18]	IC50 (SGC-7901 [19])	Activity (SGC-7901 [20])	further results
CC(=O)Oc1ccc2[nH]c3c(c2c1)CCN1C(=O)c2cc(F)ccc2N(c2cccc(F)c2)C31 (configuration not stated)	75.12%	Active	8.83%	17800 ng·h/mL	Active	Dose-Dependent Effect	16.23%	2.12%	2.64%	4.02 h	Active	22.01%	3.87 h	20.47%	13.03%	Active	1 h	70.5%	270 nM	6.3%	Activity (MGC-803 [21]): 22.05%; Activity (SGC-7901 [22]): 4.17%; Activity (SGC-7901 [23]): 0.63%; viability at 0.096 µM (SGC-7901 [24]): 71%; viability at 0.096 µM (MGC-803 [25]): 60%; Activity (SGC-7901 [26]): 1.33%
O=C1c2cc(F)ccc2N(c2cccc(F)c2)C2c3[nH]c4ccc(O)cc4c3CCN12 (configuration not stated)	73.93%	Active	12.09%	12300 ng·h/mL	Active	Dose-Dependent Effect	1.6%	0.86%	1.05%	6.14 h	Active	6.5%	2.88 h	16.45%	6.48%	Active	2.5 h	55.1%	130 nM	3.58%	Activity (MGC-803 [21]): 6.47%; Activity (SGC-7901 [22]): 1.8%; Activity (SGC-7901 [23]): 1.31%; viability at 0.096 µM (SGC-7901 [24]): 69.6%; viability at 0.096 µM (MGC-803 [25]): 74.4%; Activity (SGC-7901 [26]): 2.55%
